This is an account of results in ChEMBL document CHEMBL5209574, “Fluo-8 based assay for SLC24A4 using HEK293 JumpIn SLC24A4 OE cells” (2022).

The assay concerns the target T1, Sodium/potassium/calcium exchanger 4 (Homo sapiens, UniProt Q8NFF2).
T1 sequence (Q8NFF2 whole entry): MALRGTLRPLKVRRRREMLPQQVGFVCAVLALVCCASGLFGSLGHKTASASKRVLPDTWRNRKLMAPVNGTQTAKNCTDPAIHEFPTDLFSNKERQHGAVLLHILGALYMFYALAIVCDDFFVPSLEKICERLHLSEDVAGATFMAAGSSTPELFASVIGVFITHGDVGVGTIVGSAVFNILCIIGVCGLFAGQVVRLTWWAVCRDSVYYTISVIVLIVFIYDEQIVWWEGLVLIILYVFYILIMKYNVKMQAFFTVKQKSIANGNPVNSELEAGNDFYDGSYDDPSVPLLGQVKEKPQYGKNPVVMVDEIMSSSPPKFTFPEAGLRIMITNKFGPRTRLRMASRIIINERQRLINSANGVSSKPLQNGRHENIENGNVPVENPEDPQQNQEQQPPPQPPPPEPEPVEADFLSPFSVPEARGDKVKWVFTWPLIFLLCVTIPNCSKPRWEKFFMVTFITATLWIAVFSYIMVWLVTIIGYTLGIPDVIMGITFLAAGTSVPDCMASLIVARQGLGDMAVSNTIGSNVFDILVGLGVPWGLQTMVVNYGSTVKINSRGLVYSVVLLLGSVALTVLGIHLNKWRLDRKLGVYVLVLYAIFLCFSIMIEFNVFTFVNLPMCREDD
Nature of the assay: Substrate uptake by the Sodium/Potassium/Calcium Exchanger 4 (NCKX4, SLC24A4) as assessed by Screen Questtrade mark Fluo-8 NW calcium assay kit in HEK-293 JumpIN-SLC24A4 cells (PubChem AID: 1794814). It counts as functional, cell-based, HEK293.

Broadly, the EC50 is the midpoint of the concentration-response curve. For `[Cl-].[K+]` [POTASSIUM CHLORIDE], the EC50 stood at 174 mM.
